From patent US11654199B2 (BOLT BIOTHERAPEUTICS, INC., priority 2019, dated 2023)

Key:
human TLR7 = target: T1, human TLR7 (Homo sapiens, UniProt Q9NYK1); test: HEK293 NFKB reporter assay, human TLR7; assay type: cell-based; details: HEK293 NFKB reporter cells expressing human TLR7; read-out: HEK293 hTLR7 EC50
T1 construct: host or cells: HEK293 reporter cells
T1 sequence (Q9NYK1 27-1049): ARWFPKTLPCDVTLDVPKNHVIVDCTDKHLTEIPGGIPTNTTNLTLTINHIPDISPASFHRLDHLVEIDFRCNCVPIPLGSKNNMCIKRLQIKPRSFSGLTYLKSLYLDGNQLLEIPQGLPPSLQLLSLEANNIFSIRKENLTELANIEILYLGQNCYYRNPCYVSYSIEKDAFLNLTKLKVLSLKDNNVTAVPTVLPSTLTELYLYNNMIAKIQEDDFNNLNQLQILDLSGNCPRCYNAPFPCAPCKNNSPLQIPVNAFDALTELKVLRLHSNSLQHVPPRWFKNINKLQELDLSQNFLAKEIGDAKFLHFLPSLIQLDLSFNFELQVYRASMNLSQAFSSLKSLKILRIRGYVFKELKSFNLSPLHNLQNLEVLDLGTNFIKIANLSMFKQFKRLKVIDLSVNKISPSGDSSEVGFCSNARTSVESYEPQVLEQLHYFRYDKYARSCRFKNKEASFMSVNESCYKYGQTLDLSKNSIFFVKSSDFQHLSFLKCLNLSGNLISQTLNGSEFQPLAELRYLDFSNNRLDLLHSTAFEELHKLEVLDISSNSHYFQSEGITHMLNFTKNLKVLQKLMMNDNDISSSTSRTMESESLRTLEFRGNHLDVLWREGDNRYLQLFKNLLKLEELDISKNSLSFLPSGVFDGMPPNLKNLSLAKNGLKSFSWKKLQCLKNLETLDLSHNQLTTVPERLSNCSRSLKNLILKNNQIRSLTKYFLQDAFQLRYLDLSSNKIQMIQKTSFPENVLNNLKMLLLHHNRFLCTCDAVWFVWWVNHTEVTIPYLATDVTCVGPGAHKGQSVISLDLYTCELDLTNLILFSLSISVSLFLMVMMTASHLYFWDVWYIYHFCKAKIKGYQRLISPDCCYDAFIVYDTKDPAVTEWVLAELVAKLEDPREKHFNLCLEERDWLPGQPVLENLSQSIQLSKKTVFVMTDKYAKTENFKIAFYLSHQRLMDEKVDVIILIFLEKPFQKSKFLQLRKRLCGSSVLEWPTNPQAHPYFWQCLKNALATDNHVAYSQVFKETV
Protocol: (§1) Each compound was synthesized, purified, and characterized by mass spectrometry and shown to have the mass indicated. Additional experimental procedures are found in the Examples. Activity against HEK293 NFKB reporter cells expressing human TLR7 or human TLR8 was measured according to Example 202.
(§2) HEK293 reporter cells expressing human TLR7 or human TLR8 were purchased from Invivogen and vendor protocols were followed for cellular propagation and experimentation. Briefly, cells were grown to 80-85% confluence at 5% CO2 in DMEM supplemented with 10% FBS, Zeocin, and Blasticidin. Cells were then seeded in 96-well flat plates at 4×10^4 cells/well with substrate containing HEK detection medium and immunostimulatory molecules. Activity was measured using a plate reader at 620-655 nm wavelength.

human TLR8 = target: T2, human TLR8 (Homo sapiens, UniProt Q9NR97); test: HEK293 NFKB reporter assay, human TLR8; assay type: cell-based; details: HEK293 NFKB reporter cells expressing human TLR8; read-out: HEK293 hTLR8 EC50
T2 construct: host or cells: HEK293 reporter cells
T2 sequence (Q9NR97 27-1041): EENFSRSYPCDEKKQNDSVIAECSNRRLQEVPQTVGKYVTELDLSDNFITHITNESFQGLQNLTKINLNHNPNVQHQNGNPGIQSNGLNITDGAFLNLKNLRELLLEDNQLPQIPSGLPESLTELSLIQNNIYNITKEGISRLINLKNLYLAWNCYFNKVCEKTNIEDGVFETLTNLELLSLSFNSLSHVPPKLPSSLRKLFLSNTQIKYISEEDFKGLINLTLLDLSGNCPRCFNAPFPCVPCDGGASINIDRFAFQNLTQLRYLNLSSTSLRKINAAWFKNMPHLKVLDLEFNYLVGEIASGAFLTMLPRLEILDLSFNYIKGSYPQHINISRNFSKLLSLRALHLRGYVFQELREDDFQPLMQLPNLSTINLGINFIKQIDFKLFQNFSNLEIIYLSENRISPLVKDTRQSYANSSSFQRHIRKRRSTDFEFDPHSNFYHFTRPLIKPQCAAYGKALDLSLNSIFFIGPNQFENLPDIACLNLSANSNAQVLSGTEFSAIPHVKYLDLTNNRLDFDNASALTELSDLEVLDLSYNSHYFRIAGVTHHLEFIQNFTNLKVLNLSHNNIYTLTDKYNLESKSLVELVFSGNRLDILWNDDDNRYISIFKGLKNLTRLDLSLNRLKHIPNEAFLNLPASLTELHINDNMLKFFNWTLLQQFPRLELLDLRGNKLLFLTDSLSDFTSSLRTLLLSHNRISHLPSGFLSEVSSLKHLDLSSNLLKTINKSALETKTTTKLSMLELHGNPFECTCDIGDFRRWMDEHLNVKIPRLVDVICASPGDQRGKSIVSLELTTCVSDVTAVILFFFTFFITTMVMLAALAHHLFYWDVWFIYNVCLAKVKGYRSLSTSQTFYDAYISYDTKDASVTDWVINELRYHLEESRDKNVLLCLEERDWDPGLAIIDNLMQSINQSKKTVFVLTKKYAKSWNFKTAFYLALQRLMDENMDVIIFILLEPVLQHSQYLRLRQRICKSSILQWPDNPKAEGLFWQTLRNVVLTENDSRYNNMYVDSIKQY
Protocol: as §1, §2

CCCN(CCC)C(=O)C1=Cc2sc(C#CCCCNC(=O)OC(C)(C)C)cc2N=C(N)C1 [TAZ-6, tert-butyl N-[5-[5-amino-7-(dipropylcarbamoyl)-6H-thieno[3,2-b]azepin-2-yl]pent-4-ynyl] carbamate]
EC50 (human TLR7): > 9 µM | EC50 (human TLR8): > 9 µM

CCCN(CCCNC(=O)OC(C)(C)C)C(=O)C1=Cc2sccc2N=C(N)C1 [TAZ-8, tert-butyl N-[3-[(5-amino-6H-thieno[3,2-b]azepine-7-carbonyl)-propyl-amino]propyl]carbamate]
EC50 (human TLR7): 0.589 µM | EC50 (human TLR8): 1.53 µM

CCCN(CCC)C(=O)C1=Cc2sc(C(=O)NCCCNC(=O)OC(C)(C)C)cc2N=C(N)C1 [TAZ-31]
EC50 (human TLR7): > 9 µM | EC50 (human TLR8): > 9 µM

CCCN(CCC)C(=O)C1=Cc2sc(C(=O)NCCCN)cc2N=C(N)C1 [TAZ-32]
EC50 (human TLR7): > 9 µM | EC50 (human TLR8): > 9 µM

CCCN(CCC)C(=O)C1=Cc2sc(C#CCCCN)cc2N=C(N)C1 [TAZ-33]
EC50 (human TLR7): > 9 µM | EC50 (human TLR8): > 9 µM

CCCN(Cc1ccc(CN2CCN(C(=O)OC(C)(C)C)CC2)cc1)C(=O)C1=Cc2sccc2N=C(N)C1 [TAZ-34]
EC50 (human TLR7): > 9 µM | EC50 (human TLR8): 0.339 µM

CCCN(CCC)C(=O)C1=Cc2sc(C#CCCN)cc2N=C(N)C1 [TAZ-35]
EC50 (human TLR7): > 9 µM | EC50 (human TLR8): 2.87 µM

CCCN(CCC)C(=O)C1=Cc2sc(CCCCNC(=O)OC(C)(C)C)cc2N=C(N)C1 [TAZ-36]
EC50 (human TLR7): 8.52 µM | EC50 (human TLR8): > 9 µM

CCCN(CCC)C(=O)C1=Cc2sc(CCCCN)cc2N=C(N)C1 [TAZ-38]
EC50 (human TLR7): 4.15 µM | EC50 (human TLR8): 3.75 µM

CCCN(Cc1ccccc1)C(=O)C1=Cc2sccc2N=C(N)C1 [TAZ-39]
EC50 (human TLR7): > 9 µM | EC50 (human TLR8): > 9 µM

CCCN(CC12CC(CNC(=O)OC(C)(C)C)(C1)C2)C(=O)C1=Cc2sccc2N=C(N)C1 [TAZ-40]
EC50 (human TLR7): > 9 µM | EC50 (human TLR8): > 9 µM

CCCN(CC12CC(CN)(C1)C2)C(=O)C1=Cc2sccc2N=C(N)C1 [TAZ-41]
EC50 (human TLR7): > 9 µM | EC50 (human TLR8): > 9 µM

CCCN(Cc1ccc(CNC(=O)OC(C)(C)C)cn1)C(=O)C1=Cc2sccc2N=C(N)C1 [TAZ-42]
EC50 (human TLR7): > 9 µM | EC50 (human TLR8): > 9 µM

CCCN(CCC)C(=O)C1=Cc2sc(CN3CCN(C(=O)OC(C)(C)C)CC3)cc2N=C(N)C1 [TAZ-43]
EC50 (human TLR7): > 9 µM | EC50 (human TLR8): > 9 µM

CCCN(CCC)C(=O)C1=Cc2sc(CN3CCNCC3)cc2N=C(N)C1 [TAZ-44]
EC50 (human TLR7): 4.53 µM | EC50 (human TLR8): 0.593 µM

CCCN(Cc1ccc(CNC(C)=O)cc1)C(=O)C1=Cc2sccc2N=C(N)C1 [TAZ-45]
EC50 (human TLR7): > 9 µM | EC50 (human TLR8): 1.78 µM

CCCN(Cc1ccc(CNC(=O)CCOC)cc1)C(=O)C1=Cc2sccc2N=C(N)C1 [TAZ-46]
EC50 (human TLR7): > 9 µM | EC50 (human TLR8): 1.58 µM

CCCN(CC12CC(CN(C)C)(C1)C2)C(=O)C1=Cc2sccc2N=C(N)C1 [TAZ-47]
EC50 (human TLR7): > 9 µM | EC50 (human TLR8): > 9 µM

CCCN(C[C@H]1C[C@@H](CNC(=O)OC(C)(C)C)C1)C(=O)C1=Cc2sccc2N=C(N)C1 [TAZ-48]
EC50 (human TLR7): > 9 µM | EC50 (human TLR8): > 9 µM

CCCN(C[C@H]1C[C@@H](CN)C1)C(=O)C1=Cc2sccc2N=C(N)C1 [TAZ-49]
EC50 (human TLR7): > 9 µM | EC50 (human TLR8): > 9 µM

[2H]C1=C(C(=O)N(CCC)Cc2ccc(CNC(=O)OC(C)(C)C)nc2)CC(N)=Nc2ccsc21 [TAZ-50]
EC50 (human TLR7): 7.12 µM | EC50 (human TLR8): 7.94 µM

CCCN(Cc1ccc(CNC(=O)OC(C)(C)C)cc1C(F)(F)F)C(=O)C1=Cc2sccc2N=C(N)C1 [TAZ-51]
EC50 (human TLR7): > 9 µM | EC50 (human TLR8): 5.63 µM

CCCN(Cc1ccc(CN)cc1C(F)(F)F)C(=O)C1=Cc2sccc2N=C(N)C1 [TAZ-52, 5-amino-N-[[4-(aminomethyl)-2-(trifluoromethyl)phenyl]methyl]-N-propyl-6H-thieno[3,2-b]azepine-7-carboxamide]
EC50 (human TLR7): 2.71 µM | EC50 (human TLR8): 0.151 µM

CCCN(OCC)C(=O)C1=Cc2sccc2N=C(N)C1 [TAZ-53]
EC50 (human TLR7): 3.62 µM | EC50 (human TLR8): 0.181 µM

CCCN(CCC)C(=O)C1=Cc2sc(S(=O)(=O)NCCCNC(=O)OC(C)(C)C)cc2N=C(N)C1 [TAZ-55]
EC50 (human TLR7): > 9 µM | EC50 (human TLR8): > 9 µM

CCCN(CCC)C(=O)C1=Cc2sc(S(=O)(=O)NCCCN)cc2N=C(N)C1 [TAZ-56]
EC50 (human TLR7): > 9 µM | EC50 (human TLR8): > 9 µM

CCCN(Cc1cnc(CNC(=O)OC(C)(C)C)cn1)C(=O)C1=Cc2sccc2N=C(N)C1 [TAZ-57]
EC50 (human TLR7): 1.05 µM | EC50 (human TLR8): 3.85 µM

CCCN(Cc1ccc(CCN)cc1)C(=O)C1=Cc2sccc2N=C(N)C1 [TAZ-58]
EC50 (human TLR7): > 9 µM | EC50 (human TLR8): 1.3 µM

CCCN(Cc1ccc(CCNC(=O)OC(C)(C)C)cc1)C(=O)C1=Cc2sccc2N=C(N)C1 [TAZ-59]
EC50 (human TLR7): > 9 µM | EC50 (human TLR8): > 9 µM

CCCN(Cc1cnc(CN)cn1)C(=O)C1=Cc2sccc2N=C(N)C1 [TAZ-62]
EC50 (human TLR7): 8.32 µM | EC50 (human TLR8): 0.178 µM

CCCN(Cc1ccc(CN)nc1)C(=O)C1=Cc2sccc2N=C(N)C1 [TAZ-63]
EC50 (human TLR7): 4.21 µM | EC50 (human TLR8): 0.517 µM

CCCN(CCC(F)(F)F)C(=O)C1=Cc2sccc2N=C(N)C1 [TAZ-64]
EC50 (human TLR7): 5.06 µM | EC50 (human TLR8): 2.74 µM

CCCN(CCC)C(=O)C1=Cc2sc(COCCCNC(=O)OC(C)(C)C)cc2N=C(N)C1 [TAZ-66]
EC50 (human TLR7): 4.42 µM | EC50 (human TLR8): 4.24 µM

CCCN(Cc1ccc(CN)nc1C(F)(F)F)C(=O)C1=Cc2sccc2N=C(N)C1 [TAZ-70]
EC50 (human TLR7): 6.61 µM | EC50 (human TLR8): 0.075 µM

CCCN(OCC)C(=O)C1=Cc2sc(C#CCCCNC(=O)OC(C)(C)C)cc2N=C(N)C1 [TAZ-72]
EC50 (human TLR7): 3.15 µM | EC50 (human TLR8): 2.83 µM

CCON(CCC(F)(F)F)C(=O)C1=Cc2sccc2N=C(N)C1 [TAZ-74]
EC50 (human TLR7): 4.11 µM | EC50 (human TLR8): 0.301 µM

CCCN(OCC)C(=O)C1=Cc2sc(CCCCCNC(=O)OC(C)(C)C)cc2N=C(N)C1 [TAZ-75]
EC50 (human TLR7): 5.08 µM | EC50 (human TLR8): 2.03 µM

CCCN(OCC)C(=O)C1=Cc2sc(CCCCCN)cc2N=C(N)C1 [TAZ-76]
EC50 (human TLR7): 3.44 µM | EC50 (human TLR8): 1.42 µM

NCc1ccc(CN(CCC(F)(F)F)C(=O)C2=Cc3sccc3N=C(N)C2)cc1 [TAZ-77]
EC50 (human TLR7): 3.9 µM | EC50 (human TLR8): 0.059 µM

CCON(Cc1ccc(CN)cc1)C(=O)C1=Cc2sccc2N=C(N)C1 [TAZ-79]
EC50 (human TLR7): > 9 µM | EC50 (human TLR8): 4.13 µM

CCCN(CCC)C(=O)C1=Cc2sc(COCCNC(=O)OC(C)(C)C)cc2N=C(N)C1 [TAZ-80]
EC50 (human TLR7): 4 µM | EC50 (human TLR8): 3.79 µM

CCCN(Cc1ccc(CN(C)C)cc1)C(=O)C1=Cc2sc(CCCCCN)cc2N=C(N)C1 [TAZ-82]
EC50 (human TLR7): 5 µM | EC50 (human TLR8): 2.87 µM

CCCN(CCc1ccc(OC)cc1)C(=O)C1=Cc2sccc2N=C(N)C1 [TAZ-83]
EC50 (human TLR7): 3.52 µM | EC50 (human TLR8): 3.37 µM
